Test results reported in patent US20240090503A1, “FUNGICIDAL OXADIAZOLES AND THEIR MIXTURES” (FMC CORPORATION, priority 2020, published 2024).
Marks after values point to notes of the source that are not given here.

Key:
Type in all cases: in vivo
[1] = tested on: Phakopsora pachyrhizi (the causal agent of Asian soybean rust); test: Test A: preventive spray on soybean seedlings, Asian soybean rust, visual disease rating; conditions: soybean seedlings
Outline: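 Compound in acetone/water (50/50) with 250 ppm PEG400 sprayed to run-off on soybean seedlings; inoculated next day with Phakopsora pachyrhizi spores. Held 24 h at 22° C in saturated atmosphere, then 8 days in a 22° C growth chamber before visual rating as % disease control relative to controls.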

[2] = tested on: Zymoseptoria tritici (the causal agent of wheat leaf blotch); test: Test B: preventive spray on wheat seedlings, wheat leaf blotch, visual disease rating; conditions: wheat seedlings
Outline: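 This is a preventive test: spray application preceded Zymoseptoria tritici spore inoculation by one day. Test suspensions were in acetone/water with 250 ppm PEG400 surfactant, at the listed ppm rate. After 48 h saturated humidity at 24° C and 17 days at 20° C, visual ratings scored control from 0 to 100%.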

[3] = tested on: Puccinia recondita f. sp. tritici (the causal agent of wheat leaf rust); test: Test C: preventive spray on wheat seedlings, wheat leaf rust, visual disease rating; conditions: wheat seedlings
Outline: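 Wheat seedlings sprayed to run-off with compound in acetone/water (50/50) with 250 ppm PEG400, then inoculated with spores the following day. After 24 h saturated humidity at 20° C. and 6 days in growth chamber at 20° C., disease rated visually as % control relative to untreated controls.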

[4] = test suspension 10 ppm, 100 = 100% disease control, 0 = no control
[5] = 250 ppm test suspension, 100 = 100% disease control, 0 = no control
[6] = 250 ppm test suspension, 100 = 100% disease control
[7] = 10 ppm test suspension, 100 = 100% disease control, 0 = no control

SMILES | Test B disease control rating ([2]; test suspension 250 ppm) | Test A disease control rating ([1]; test suspension 250 ppm) [%] | Test C disease control rating ([3]; test suspension 250 ppm) [%] | Test A disease control rating [1, 4] [%] | Test C disease control rating ([3]; test suspension 10 ppm) [%] | also measured
COC(=O)c1nncn1Cc1ccc(-c2noc(C(F)(F)F)n2)cc1 [compound 138] | – | – | – | – | – | Test A disease control rating ([1]; test suspension 260 ppm): 100%; Test B disease control rating ([2]; test suspension 260 ppm): 96%; Test C disease control rating ([3]; test suspension 260 ppm): 100%
CCCOC(=O)c1cnn(Cc2ccc(-c3noc(C(F)(F)F)n3)o2)c1 [compound 211] | 70* % | – | – | – | – | Test A disease control rating ([1]; test suspension 50 ppm): 100%; Test C disease control rating ([3]; test suspension 50 ppm): 100%
O=C1C(=O)N(Cc2ccc(-c3noc(C(F)(F)F)n3)cc2)c2ccccc21 [compound 87] | 82% | 100 | 100 | – | – | –
CC(C)(NC(=O)c1coc(Cc2ccc(-c3noc(C(F)(F)F)n3)cc2)n1)C(F)(F)F [compound 331] | 97* % | – | – | 99 | 94 | –
O=C1N(Cc2ccc(-c3noc(C(F)(F)F)n3)cc2)c2ccccc2C1(F)F [compound 161] | – | – | – | – | – | Test A disease control rating ([1]; test suspension 265 ppm): 100%; Test B disease control rating ([2]; test suspension 265 ppm): 33%; Test C disease control rating ([3]; test suspension 265 ppm): 99%
O=C1COCCN1Cc1ccc(-c2noc(C(F)(F)F)n2)s1 [compound 325] | 36* % | 100 | 100 | – | – | –
OC(c1ccc(-c2noc(C(F)(F)F)n2)cc1)c1cccc(Cl)c1 (stereo not drawn) [compound 499] | – | – | – | – | – | Test A disease control rating [1, 5]: 100%; Test B disease control rating [2, 6]: 48* %; Test C disease control rating [3, 5]: 100%
O=C(NCCF)c1coc(Cc2ccc(-c3noc(C(F)(F)F)n3)cc2)n1 [Compound 400, N-(2-fluoroethyl)-2-[[4-[5-(trifluoromethyl)-1,2,4-oxadiazol-3-yl]phenyl]methyl]-4-oxazolecarboxamide] | – | – | – | – | – | pest or weed control at 10 ppm ([1]; Phakopsora pachyrhizi, 216 h, 10 ppm test suspension, 100 = 100% disease control, 0 = no control): 100%; pest or weed control at 250 ppm ([2]; Zymoseptoria tritici, 456 h, 250 ppm test suspension, 100 = 100% disease control): 99%; pest or weed control at 10 ppm ([3]; Puccinia recondita, 168 h, 10 ppm test suspension, 100 = 100% disease control, 0 = no control): 100%
CCOC(=O)c1cnn(C(C)c2ccc(-c3noc(C(F)(F)F)n3)s2)c1 (stereo not drawn) [Compound 192] | 99* % | – | – | 100 | 100 | –
O=C(NCCn1cccn1)c1csc(COc2ccc(-c3noc(C(F)(F)F)n3)cc2)n1 [compound 471] | – | – | – | – | – | Test A disease control rating [1, 7]: 77%; Test B disease control rating [2, 6]: 15* %; Test C disease control rating [3, 7]: 80%
Cc1nc(COc2ccc(-c3noc(C(F)(F)F)n3)cc2)cs1 [compound 298] | 73* % | – | – | 50 | 0 | –
CC(C)OC(=O)c1cnn(Cc2ccc(-c3noc(C(F)(F)F)n3)cc2)c1 [compound 58] | – | – | – | 100 | 100 | Test B disease control rating ([2]; test suspension 100 ppm (** next to rating)): 83** %
CCc1nn(Cc2ccc(-c3noc(C(F)(F)F)n3)cc2)c(=O)n1C [compound 235] | 87% | 100 | 100 | – | – | –
COC(=O)c1coc(Cc2ccc(-c3noc(C(F)(F)F)n3)cc2)n1 [Compound 490] | – | – | – | – | – | Test A disease control rating [1, 7]: 100%; Test B disease control rating [2, 6]: 94* %; Test C disease control rating [3, 7]: 74%
N#CCNC(=O)c1cccc(Cc2ccc(-c3noc(C(F)(F)F)n3)cc2)c1 [compound 285] | 94* % | – | – | 100 | 97 | –
CC(C)NC(=O)c1coc(Cc2ccc(-c3noc(C(F)(F)F)n3)cc2)n1 [compound 259] | 99* % | – | – | 100 | 99 | –
FC(F)(F)c1nc(-c2cnn(CCCn3cc(-c4noc(C(F)(F)F)n4)cn3)c2)no1 [compound 326] | 1* % | 84 | 67 | – | – | –
FC(F)(F)c1nc(-c2ccc(Cn3ccc4cccnc43)cc2)no1 [compound 86] | 89% | 100 | 100 | – | – | –
NC(=O)C1=NOC(Cc2ccc(-c3noc(C(F)(F)F)n3)cc2)C1 (stereo not drawn) [compound 164] | 88% | 100 | 100 | – | – | –
